Measurements taken from US20260022142A1, “MACROCYCLIC IMMUNOMODULATORS” (Bristol-Myers Squibb Company, priority 2022, published 2026).
Numbered stars: 1 amine (or outer) side, 2 acyl side, 3 side chain; on linkers, the order of the positions; unused ones are H or OH. Bridge positions count the residues as written; N and C are the ends. Square brackets hold non-standard residues; d marks the D form. Peptide text beside a SMILES is read from it. * marks the point of attachment. ξ: configuration not given here. Phe(3-CF3) = N[C@@H](Cc1cccc(C(F)(F)F)c1)C(=O)O; Phe(4-COOH) = N[C@@H](Cc1ccc(C(=O)O)cc1)C(=O)O; d(γGlu) = O=C(O)[C@@H](CCC(=O)[*:2])N[*:1]; Bip = N[C@@H](Cc1ccc(-c2ccccc2)cc1)C(=O)O; NH(CH2)14COOH = O=C(O)CCCCCCCCCCCCCCN*; Phe(3-Me) = Cc1cccc(C[C@H](N)C(=O)O)c1; γGlu = O=C(O)[C@H](CCC(=O)[*:2])N[*:1]; NH(CH2)12COOH = O=C(O)CCCCCCCCCCCCN*; Val(3-OH) = CC(C)(O)[C@H](N)C(=O)O; Cha = N[C@@H](CC1CCCCC1)C(=O)O; aThr = C[C@H](O)[C@H](N)C(=O)O; Thr(3ξ) = CC(O)[C@H](N)C(=O)O; Dap(Me) = CNC[C@H](N)C(=O)O; dDab = NCC[C@@H](N)C(=O)O; Carboxymethyl = O=C(O)C*; Nle = CCCC[C@H](N)C(=O)O; Orn = NCCC[C@H](N)C(=O)O; Dab = NCC[C@H](N)C(=O)O; AEEA = NCCOCCOCC(=O)O

Biological target: T1, PD-1/PD-L1 interaction (PE-labeled human PD-L1-Ig binding to Jurkat cell line over-expressing human PD-1) (Homo sapiens, UniProt Q15116)
T1 construct: expressed in transfected cells; host or cells: Jurkat
Assay: Jurkat-PD-1 Cell Binding High-Content Screening Assay (CBA)
Format: cell-based
Conditions: Jurkat cell line over-expressing human PD-1; PE-labeled PD-L1-Ig 20 nM final; read-out: Jurkat hPD1-PDL1 IC50
Summary of the method: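 Human PD-L1-Ig carrying a covalent PE label on its Ig tag serves as the probe, applied at 20 nM final to compound-treated (2 h, 37° C) Jurkat-hPD-1 cells in medium with 10% fetal calf serum. After one hour, fixation and nuclear staining precede high-content image analysis.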

T1 sequence (Q15116 25-288): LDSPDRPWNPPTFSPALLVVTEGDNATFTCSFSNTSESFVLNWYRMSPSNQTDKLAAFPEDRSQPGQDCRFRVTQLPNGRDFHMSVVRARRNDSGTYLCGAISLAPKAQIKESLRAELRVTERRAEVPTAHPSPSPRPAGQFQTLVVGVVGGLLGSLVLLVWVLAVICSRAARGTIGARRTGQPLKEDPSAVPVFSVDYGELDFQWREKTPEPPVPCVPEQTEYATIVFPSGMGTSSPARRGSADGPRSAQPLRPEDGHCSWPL

Row | Compound | IC50 [nM]
1 | CNC[C@@H]1NC(=O)CSC[C@@H](C(=O)N[C@@H](CCN)C(=O)NCCOCCOCC(=O)N[C@@H](CO)C(=O)N[C@@H](CO)C(=O)N[C@@H](CO)C(=O)N[C@@H](CO)C(=O)N[C@@H](CCC(=O)NCCCCCCCCCCCCCCC(=O)O)C(=O)O)NC(=O)[C@H](Cc2cnc[nH]2)NC(=O)[C@H](C(C)(C)O)NC(=O)[C@H](CC2CCCCC2)NC(=O)[C@H](CCN)NC(=O)[C@@H](CC(C)C)NC(=O)[C@H](CCCN)NC(=O)[C@H](Cc2ccc(C(=O)O)cc2)NC(=O)[C@H](Cc2ccc(-c3ccccc3)cc2)NC(=O)[C@H](Cc2ccc(C(=O)O)cc2)NC(=O)[C@H](Cc2cccc(C(F)(F)F)c2)NC(=O)[C@H](CC(=O)O)NC(=O)[C@H](Cc2ccc(OCC(=O)O)cc2)NC1=O [Compound 3901] ({CH2CO}-[Dap(Me)]Y(Carboxymethyl)D[Phe(3-CF3)][Phe(4-COOH)][Bip][Phe(4-COOH)][Orn][dL][Dab][Cha][Val(3-OH)]HC[Dab][AEEA]SSSSE(NH(CH2)14COOH)-OH; thioether N-14) | 173
2 | CC(C)C[C@H]1NC(=O)[C@H](CCCN)NC(=O)[C@H](Cc2ccc(OCC(=O)O)cc2)NC(=O)[C@H](Cc2ccc(-c3ccccc3)cc2)NC(=O)[C@H](Cc2ccc(C(=O)O)cc2)NC(=O)[C@H](Cc2cccc(C(F)(F)F)c2)NC(=O)[C@H](CC(=O)O)NC(=O)[C@H](Cc2ccc(OCC(=O)O)cc2)NC(=O)[C@H](C(C)O)NC(=O)CSC[C@@H](C(=O)N[C@@H](CCN)C(=O)NCCOCCOCC(=O)N[C@@H](CCC(=O)NCCOCCOCC(=O)NCCCCCCCCCCCCC(=O)O)C(=O)O)NC(=O)[C@H](CCC(=O)O)NC(=O)[C@H](C(C)C)NC(=O)[C@H](CC2CCCCC2)NC(=O)[C@H](CCN)NC1=O (stereo partly drawn) [Compound 3902] ({CH2CO}-[Thr(3ξ)]Y(Carboxymethyl)D[Phe(3-CF3)][Phe(4-COOH)][Bip]Y(Carboxymethyl)[Orn][dL][Dab][Cha]VEC[Dab][AEEA][γGlu][AEEA]-{NH(CH2)12COOH}; thioether N-14) | 67.2
3 | CNC[C@@H]1NC(=O)CSC[C@@H](C(=O)N[C@@H](CCN)C(=O)NCCOCCOCC(=O)N[C@@H](CCC(=O)NCCOCCOCC(=O)NCCCCCCCCCCCCC(=O)O)C(=O)O)NC(=O)[C@H](CO)NC(=O)[C@H](C(C)(C)O)NC(=O)[C@H](CC2CCCCC2)NC(=O)[C@H](CCN)NC(=O)[C@@H](CC(C)C)NC(=O)[C@H](CCCN)NC(=O)[C@H](Cc2ccc(C(=O)O)cc2)NC(=O)[C@H](Cc2ccc(-c3ccccc3)cc2)NC(=O)[C@H](Cc2ccc(C(=O)O)cc2)NC(=O)[C@H](Cc2cccc(C(F)(F)F)c2)NC(=O)[C@H](CC(=O)O)NC(=O)[C@H](Cc2ccc(OCC(=O)O)cc2)NC1=O [Compound 3903] ({CH2CO}-[Dap(Me)]Y(Carboxymethyl)D[Phe(3-CF3)][Phe(4-COOH)][Bip][Phe(4-COOH)][Orn][dL][Dab][Cha][Val(3-OH)]SC[Dab][AEEA][γGlu][AEEA]-{NH(CH2)12COOH}; thioether N-14) | 49.7
4 | CC(C)C[C@H]1NC(=O)[C@H](CCCN)NC(=O)[C@H](Cc2ccc(OCC(=O)O)cc2)NC(=O)[C@H](Cc2ccc(-c3ccccc3)cc2)NC(=O)[C@H](Cc2ccc(C(=O)O)cc2)NC(=O)[C@H](Cc2cccc(C(F)(F)F)c2)NC(=O)[C@H](CC(=O)O)NC(=O)[C@H](Cc2ccc(OCC(=O)O)cc2)NC(=O)[C@H](Cc2ccc(OCC(=O)O)cc2)NC(=O)CSC[C@@H](C(=O)N[C@@H](CCN)C(=O)NCCOCCOCC(=O)N[C@H](CCC(=O)NCCOCCOCC(=O)NCCCCCCCCCCCCC(=O)O)C(=O)O)NC(=O)[C@H](CO)NC(=O)[C@H](C(C)(C)O)NC(=O)[C@H](CC2CCCCC2)NC(=O)[C@H](CCN)NC1=O [Compound 3904] ({CH2CO}-Y(Carboxymethyl)Y(Carboxymethyl)D[Phe(3-CF3)][Phe(4-COOH)][Bip]Y(Carboxymethyl)[Orn][dL][Dab][Cha][Val(3-OH)]SC[Dab][AEEA][d(γGlu)][AEEA]-{NH(CH2)12COOH}; thioether N-14) | 38.1

Further molecules by falling IC50, results first:

Row | IC50 [nM] | Compound
5 | 224 | CNC[C@@H]1NC(=O)CSC[C@@H](C(=O)N[C@@H](CCN)C(=O)NCCOCCOCC(=O)NCCCCCCCCCCCCCCC(=O)O)NC(=O)[C@H](CCC(=O)O)NC(=O)[C@H](C(C)C)NC(=O)[C@H](CC2CCCCC2)NC(=O)[C@H](CCN)NC(=O)[C@@H](CC(C)C)NC(=O)[C@H](CCCN)NC(=O)[C@H](Cc2ccc(C(=O)O)cc2)NC(=O)[C@H](Cc2ccc(-c3ccccc3)cc2)NC(=O)[C@H](Cc2ccc(C(=O)O)cc2)NC(=O)[C@H](Cc2cccc(C(F)(F)F)c2)NC(=O)[C@H](CC(=O)O)NC(=O)[C@H](Cc2ccc(C(=O)O)cc2)NC1=O [Compound 3896] ({CH2CO}-[Dap(Me)][Phe(4-COOH)]D[Phe(3-CF3)][Phe(4-COOH)][Bip][Phe(4-COOH)][Orn][dL][Dab][Cha]VEC[Dab][AEEA]-{NH(CH2)14COOH}; thioether N-14)
6 | 185 | CC(C)C[C@H]1NC(=O)[C@H](CCCN)NC(=O)[C@H](Cc2ccc(C(=O)O)cc2)NC(=O)[C@H](Cc2ccc(-c3ccccc3)cc2)NC(=O)[C@H](Cc2ccc(C(=O)O)cc2)NC(=O)[C@H](Cc2cccc(C(F)(F)F)c2)NC(=O)[C@H](CC(=O)O)NC(=O)[C@H](Cc2ccc(OCC(=O)O)cc2)NC(=O)[C@H](CO)NC(=O)CSC[C@@H](C(=O)N[C@@H](CCN)C(=O)NCCOCCOCC(=O)N[C@@H](CO)C(=O)N[C@@H](CO)C(=O)N[C@@H](CO)C(=O)N[C@@H](CO)C(=O)N[C@@H](CCC(=O)NCCCCCCCCCCCCCCC(=O)O)C(=O)O)NC(=O)[C@H](CO)NC(=O)[C@H](C(C)(C)O)NC(=O)[C@H](CC2CCCCC2)NC(=O)[C@H](CCN)NC1=O [Compound 3900] ({CH2CO}-SY(Carboxymethyl)D[Phe(3-CF3)][Phe(4-COOH)][Bip][Phe(4-COOH)][Orn][dL][Dab][Cha][Val(3-OH)]SC[Dab][AEEA]SSSSE(NH(CH2)14COOH)-OH; thioether N-14)
7 | 106 | CCCC[C@@H]1NC(=O)CSC[C@@H](C(=O)N[C@@H](CCN)C(=O)NCCOCCOCC(=O)N[C@@H](CO)C(=O)N[C@H](CCC(=O)NCCCCCCCCCCCCCCC(=O)O)C(=O)O)NC(=O)[C@H](Cc2cnc[nH]2)NC(=O)[C@H](C(C)(C)O)NC(=O)[C@H](CC2CCCCC2)NC(=O)[C@H](CCN)NC(=O)[C@@H](CC(C)C)NC(=O)[C@H](CCCN)NC(=O)[C@H](Cc2ccc(OCC(=O)O)cc2)NC(=O)[C@H](Cc2ccc(-c3ccccc3)cc2)NC(=O)[C@H](Cc2ccc(C(=O)O)cc2)NC(=O)[C@H](Cc2cccc(C)c2)NC(=O)[C@H](CC(=O)O)NC(=O)[C@H](Cc2ccc(OCC(=O)O)cc2)NC1=O [Compound 3894] ({CH2CO}-[Nle]Y(Carboxymethyl)D[Phe(3-Me)][Phe(4-COOH)][Bip]Y(Carboxymethyl)[Orn][dL][Dab][Cha][Val(3-OH)]HC[Dab][AEEA]S[dE](NH(CH2)14COOH)-OH; thioether N-14)
8 | 63.6 | CCCC[C@@H]1NC(=O)CSC[C@@H](C(=O)N[C@H](CCN)C(=O)NCCOCCOCC(=O)N[C@@H](CCC(=O)NCCOCCOCC(=O)NCCCCCCCCCCCCC(=O)O)C(=O)O)NC(=O)[C@H](CCC(=O)O)NC(=O)[C@H](C(C)C)NC(=O)[C@H](CC2CCCCC2)NC(=O)[C@H](CCN)NC(=O)[C@@H](CC(C)C)NC(=O)[C@H](CCCN)NC(=O)[C@H](Cc2ccc(OCC(=O)O)cc2)NC(=O)[C@H](Cc2ccc(-c3ccccc3)cc2)NC(=O)[C@H](Cc2ccc(C(=O)O)cc2)NC(=O)[C@H](Cc2cccc(C(F)(F)F)c2)NC(=O)[C@H](CC(=O)O)NC(=O)[C@H](Cc2ccc(OCC(=O)O)cc2)NC1=O [Compound 3897] ({CH2CO}-[Nle]Y(Carboxymethyl)D[Phe(3-CF3)][Phe(4-COOH)][Bip]Y(Carboxymethyl)[Orn][dL][Dab][Cha]VEC[dDab][AEEA][γGlu][AEEA]-{NH(CH2)12COOH}; thioether N-14)
9 | 49.4 | CNC[C@@H]1NC(=O)CSC[C@@H](C(=O)N[C@@H](CCN)C(=O)NCCOCCOCC(=O)N[C@@H](CO)C(=O)NCCCCCCCCCCCCCCC(=O)O)NC(=O)[C@H](CCC(=O)O)NC(=O)[C@H](C(C)C)NC(=O)[C@H](CC2CCCCC2)NC(=O)[C@H](CCN)NC(=O)[C@@H](CC(C)C)NC(=O)[C@H](CCCN)NC(=O)[C@H](Cc2ccc(C(=O)O)cc2)NC(=O)[C@H](Cc2ccc(-c3ccccc3)cc2)NC(=O)[C@H](Cc2ccc(C(=O)O)cc2)NC(=O)[C@H](Cc2cccc(C(F)(F)F)c2)NC(=O)[C@H](CC(=O)O)NC(=O)[C@H](Cc2ccc(OCC(=O)O)cc2)NC1=O [Compound 3895] ({CH2CO}-[Dap(Me)]Y(Carboxymethyl)D[Phe(3-CF3)][Phe(4-COOH)][Bip][Phe(4-COOH)][Orn][dL][Dab][Cha]VEC[Dab][AEEA]S-{NH(CH2)14COOH}; thioether N-14)
10 | 27.4 | CC(=O)NCCCC[C@@H]1NC(=O)[C@H](C(C)(C)O)NC(=O)[C@H](CC2CCCCC2)NC(=O)[C@H](CCN)NC(=O)[C@@H](CC(C)C)NC(=O)[C@H](CCCN)NC(=O)[C@H](Cc2ccc(OCC(=O)O)cc2)NC(=O)[C@H](Cc2ccc(-c3ccccc3)cc2)NC(=O)[C@H](Cc2ccc(C(=O)O)cc2)NC(=O)[C@H](Cc2cccc(C(F)(F)F)c2)NC(=O)[C@H](CC(=O)O)NC(=O)[C@H](Cc2ccc(OCC(=O)O)cc2)NC(=O)[C@H]([C@H](C)O)NC(=O)CSC[C@@H](C(=O)N[C@H](CCN)C(=O)NCCOCCOCC(=O)N[C@@H](CCC(=O)NCCOCCOCC(=O)NCCCCCCCCCCCCC(=O)O)C(=O)O)NC1=O [Compound 3899] ({CH2CO}-[aThr]Y(Carboxymethyl)D[Phe(3-CF3)][Phe(4-COOH)][Bip]Y(Carboxymethyl)[Orn][dL][Dab][Cha][Val(3-OH)]K(Ac)C[dDab][AEEA][γGlu][AEEA]-{NH(CH2)12COOH}; thioether N-14)
